Assay [1] addresses T1, human sphingosine kinase type 2 (hSPHK2) (Homo sapiens, UniProt Q9NRA0).
T1 construct: purchased; host or cells: Sf9 insect cells (baculovirus)
T1 sequence (Q9NRA0 1-654): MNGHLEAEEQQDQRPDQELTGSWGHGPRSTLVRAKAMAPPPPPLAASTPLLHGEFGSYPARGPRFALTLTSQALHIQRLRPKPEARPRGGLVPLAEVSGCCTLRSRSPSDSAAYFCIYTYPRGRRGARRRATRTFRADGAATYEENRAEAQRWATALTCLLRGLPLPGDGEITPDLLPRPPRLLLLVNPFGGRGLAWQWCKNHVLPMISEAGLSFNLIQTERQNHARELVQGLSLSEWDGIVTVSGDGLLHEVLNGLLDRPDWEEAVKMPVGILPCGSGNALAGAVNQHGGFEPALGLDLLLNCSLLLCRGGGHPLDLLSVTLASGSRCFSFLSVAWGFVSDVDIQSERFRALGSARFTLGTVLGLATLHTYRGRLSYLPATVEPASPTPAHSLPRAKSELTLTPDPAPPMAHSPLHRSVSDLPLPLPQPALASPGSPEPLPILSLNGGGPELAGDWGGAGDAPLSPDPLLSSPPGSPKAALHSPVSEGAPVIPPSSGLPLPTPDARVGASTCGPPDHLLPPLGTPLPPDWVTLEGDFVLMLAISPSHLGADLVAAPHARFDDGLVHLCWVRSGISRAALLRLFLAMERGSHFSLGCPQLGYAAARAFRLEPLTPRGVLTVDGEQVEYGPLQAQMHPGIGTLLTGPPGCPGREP
Kind of assay: Sphingosine kinase assay, recombinant human SPHK2 ([32P]S1P product, scintillation counting). The class given is biochemical. The following applies: read-out: activity hSPHK2 (range estimate of KI). Here is the method: (§1) Recombinant baculovirus encoding human sphingosine kinase type 1 (SPHK1) was used to infect Sf9 insect cells and after 2-5 days, cleared lysates were prepared and used without further purification. Human SPHK2, which was partially purified from baculovirus-infected Sf9 cell lysates, was purchased from a commercial source. Sphingosine kinase assays were performed using standard protocols. Product [^32P]S1P was recovered by binding to cation exchange paper and quantified by scintillation counting.

Assay [2] addresses T2, human sphingosine kinase type 1 (hSPHK1) (Homo sapiens, UniProt Q9NYA1).
T2 construct: made in house; host or cells: Sf9 insect cells (baculovirus)
Kind of assay: Sphingosine kinase assay, recombinant human SPHK1 ([32P]S1P product, scintillation counting). The class given is biochemical. The following applies: read-out: activity hSPHK1 (range estimate of KI). Here is the method: as §1

A value given as a limit tells only on which side of the number the result lay.

T2 sequence (Q9NYA1 whole entry): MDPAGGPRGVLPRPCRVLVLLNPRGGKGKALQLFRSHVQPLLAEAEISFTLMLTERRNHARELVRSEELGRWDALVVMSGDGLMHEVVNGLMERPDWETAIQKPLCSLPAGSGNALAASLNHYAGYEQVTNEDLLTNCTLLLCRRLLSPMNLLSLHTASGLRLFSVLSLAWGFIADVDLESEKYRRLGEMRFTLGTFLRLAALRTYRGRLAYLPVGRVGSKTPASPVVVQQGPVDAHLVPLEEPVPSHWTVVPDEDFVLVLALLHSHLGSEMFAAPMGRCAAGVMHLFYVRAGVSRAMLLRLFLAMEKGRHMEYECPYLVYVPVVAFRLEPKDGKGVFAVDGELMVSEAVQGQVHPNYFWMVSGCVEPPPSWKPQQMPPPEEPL

For orientation: Ki means the dissociation constant of the complex between target and ligand, obtained from inhibition or displacement. For the compound `CCCCCCCn1cc(-c2noc([C@@H]3CCCN3C(=N)N)n2)c2ccccc21` [Compound 1A, (S)-amino(2-(3-(1-heptyl-1H-indol-3-yl)-1,2,4-oxadiazol-5-yl)pyrrolidin-1-yl)methaniminium chloride], the Ki in assay [1] and in assay [2] was > 10 µM throughout.
Turning to `CCCCCCCCCOc1ccc(-c2noc([C@@H]3CCCN3C(=N)N)n2)cc1C(F)(F)F` [Compound 1B], the Ki is < 1 µM in assay [1] and > 10 µM in assay [2].
Take `CCCCCCCCCn1cc(-c2noc([C@@H]3CCCN3C(=N)N)n2)c2ccccc21` [Compound 2A, (S)-amino(2-(3-(1-nonyl-1H-indol-3-yl)-1,2,4-oxadiazol-5-yl)pyrrolidin-1-yl)methaniminium chloride]: the Ki in assay [1] and in assay [2] was > 10 µM in each case.
For `CCCCCCCCOc1ccc(-c2noc([C@@H]3CCCN3C(=N)N)n2)cc1C(F)(F)F` [Compound 2B], in assay [2], the Ki was > 10 µM.
As for `CCCCCCCCCCCCn1cc(-c2noc([C@@H]3CCCN3C(=N)N)n2)c2ccccc21` [Compound 3A, (S)-amino(2-(3-(1-dodecyl-1H-indol-3-yl)-1,2,4-oxadiazol-5-yl)pyrrolidin-1-yl)methaniminium chloride], the Ki in assay [1] is < 1 µM.
Consider `CCCCCCCCCc1ccc(-c2noc([C@@H]3CCCN3C(=N)N)n2)cc1C(F)(F)F` [Compound 3B], for which the Ki in assay [1] was < 1 µM; in assay [2], > 10 µM.
The corresponding values for `CCCCCCCCCCCn1cc(-c2noc([C@@H]3CCCN3C(=N)N)n2)c2ccccc21` [Compound 4A, (S)-amino(2-(3-(1-undecyl-1H-indol-3-yl)-1,2,4-oxadiazol-5-yl)pyrrolidin-1-yl)methaniminium chloride] are 1 to 10 µM and > 10 µM.
As to `CCCCCCCCOc1ccc(-c2noc([C@@H]3CCCN3C(=N)N)n2)cc1Br` [Compound 4B], the Ki is < 1 µM in assay [1] and > 10 µM in assay [2].
As to `CCCCCCCCc1ccc(-c2noc([C@@H]3CCCN3C(=N)N)n2)cc1C(F)(F)F` [Compound 5A, (S)-Amino(2-(3-(4-octyl-3-(trifluoromethyl)phenyl)-1,2,4-oxadiazol-5-yl)pyrrolidin-1-yl)methaniminium chloride], the inhibitory constant (Ki) was < 1 µM in assay [1] and > 10 µM in assay [2].
For `CCCCCCCCOc1ccc(-c2nnc([C@@H]3CCCN3C(=N)N)s2)cc1C(F)(F)F` [Compound 5B], the Ki in assay [1] was < 1 µM; in assay [2], > 10 µM.
As to `CCCCCCCCOc1ccc(-c2noc([C@@H]3CCCN3C(=N)N)n2)cc1C` [Compound 6B], the Ki in assay [1] was < 1 µM; in assay [2], > 10 µM.
For the compound `CCCCCCCCCCn1cc(-c2noc([C@@H]3CCCN3C(=N)N)n2)c2ccccc21` [Compound 7A, (S)-amino(2-(3-(1-decyl-1H-indol-3-yl)-1,2,4-oxadiazol-5-yl)pyrrolidin-1-yl)methaniminium chloride], the Ki in assay [1] is < 1 µM.
As to `CCCCCCCCOc1c(C)cc(-c2noc([C@@H]3CCCN3C(=N)N)n2)cc1C` [Compound 7B], the inhibition constant Ki was < 1 µM in assay [1] and > 10 µM in assay [2].
Regarding `CCCCCCCCOc1ccc(-c2noc([C@@H]3C[C@@H](O)CN3C(=N)N)n2)cc1C(F)(F)F` [Compound 8A, amino((2S,4R)-4-hydroxy-2-(3-(4-(octyloxy)-3-(trifluoromethyl)phenyl)-1,2,4-oxadiazol-5-yl)pyrrolidin-1-yl)methaniminium chloride], the Ki in assay [1] was < 1 µM; in assay [2], > 10 µM.
Turning to `CCCCCCCn1ccc2c(-c3noc([C@@H]4CCCN4C(=N)N)n3)cccc21` [Compound 8B, (S)-amino(2-(3-(1-heptyl-1H-indol-4-yl)-1,2,4-oxadiazol-5-yl)pyrrolidin-1-yl)methaniminium chloride], the Ki in assay [1] is < 1 µM; in assay [2], > 10 µM.
For `CCCCCCCCOc1ccc(-c2noc([C@@H]3C[C@H](O)CN3C(=N)N)n2)cc1C(F)(F)F` [Compound 9A, amino((2S,4S)-4-hydroxy-2-(3-(4-(octyloxy)-3-(trifluoromethyl)phenyl)-1,2,4-oxadiazol-5-yl)pyrrolidin-1-yl)methaniminium chloride], the inhibition constant (Ki) in assay [1] and in assay [2] was > 10 µM in each case.
As for `CCCCCCCCn1ccc2c(-c3noc([C@@H]4CCCN4C(=N)N)n3)cccc21` [Compound 9B, (S)-amino(2-(3-(1-octyl-1H-indol-4-yl)-1,2,4-oxadiazol-5-yl)pyrrolidin-1-yl)methaniminium chloride], the Ki in assay [1] was < 1 µM; in assay [2] it was > 10 µM.
The corresponding values for `CCCCCCCCOc1ccc(-c2noc([C@@H]3[C@H](O)CCN3C(=N)N)n2)cc1C(F)(F)F` [Compound 10A, amino((2S,3R)-3-hydroxy-2-(3-(4-(octyloxy)-3-(trifluoromethyl)phenyl)-1,2,4-oxadiazol-5-yl)pyrrolidin-1-yl)methaniminium chloride] are > 10 µM and > 10 µM.
As for `CCCCCCCCCn1ccc2c(-c3noc([C@@H]4CCCN4C(=N)N)n3)cccc21` [Compound 10B, (S)-amino(2-(3-(1-nonyl-1H-indol-4-yl)-1,2,4-oxadiazol-5-yl)pyrrolidin-1-yl)methaniminium chloride], the Ki in assay [1] is < 1 µM; in assay [2] it was > 10 µM.
With `CCCCCCCCOc1ccc(-c2noc([C@@H]3CCCN3C(=N)N)n2)cc1F` [Compound 11A, (S)-Amino(2-(3-(3-fluoro-4-(octyloxy)phenyl)-1,2,4-oxadiazol-5-yl)pyrrolidin-1-yl)methaniminium chloride], the Ki in assay [1] and in assay [2] was > 10 µM each time.
As to `CCCCCCCCCCn1ccc2c(-c3noc([C@@H]4CCCN4C(=N)N)n3)cccc21` [Compound 11B, (S)-amino(2-(3-(1-decyl-1H-indol-4-yl)-1,2,4-oxadiazol-5-yl)pyrrolidin-1-yl)methaniminium chloride], the Ki is < 1 µM in assay [1] and > 10 µM in assay [2].
The corresponding values for `CCCCCOc1ccc2cc(-c3noc([C@@H]4CCCN4C(=N)N)n3)ccc2c1` [Compound 12A, (S)-amino(2-(3-(6-(pentyloxy)naphthalen-2-yl)-1,2,4-oxadiazol-5-yl)pyrrolidin-1-yl)methaniminium chloride] are > 10 µM and > 10 µM.
Consider `CCCCCCOc1ccc(-c2noc([C@@H]3CCCN3C(=N)N)n2)cc1C(F)(F)F` [Compound 12B], for which the Ki in assay [1] is < 1 µM; in assay [2], 1 to 10 µM.
Regarding `N=C(N)N1CCC[C@H]1c1nc(-c2ccc3cc(OCc4ccc(C(F)(F)F)cc4)ccc3c2)no1` [Compound 52A, (S)-amino(2-(3-(6-((4-(trifluoromethyl)benzyl)oxy)naphthalen-2-yl)-1,2,4-oxadiazol-5-yl)pyrrolidin-1-yl)methaniminium chloride], the Ki in assay [1] is 1 to 10 µM.
For the compound `CCCCOc1ccc2cc(-c3noc([C@@H]4CCCN4C(=N)N)n3)ccc2c1` [Compound 56A, (S)-amino(2-(3-(6-(butyloxy)naphthalen-2-yl)-1,2,4-oxadiazol-5-yl)pyrrolidin-1-yl)methaniminium chloride], the Ki in assay [1] was 1 to 10 µM.
With `CC1(C)CCC(C)(C)c2cc(COc3ccc4cc(-c5noc([C@@H]6CCCN6C(=N)N)n5)ccc4c3)ccc21` [Compound 71A, (S)-amino(2-(3-(6-((5,5,8,8-tetramethyl-5,6,7,8-tetrahydronaphthalen-2-yl)methoxy)naphthalen-2-yl)-1,2,4-oxadiazol-5-yl)pyrrolidin-1-yl)methaniminium chloride], in assay [1], the Ki is > 10 µM.
